Read-outs that look alike come from different tables or passages of the source.
Legend:
[1] = Study 1: single-dose pharmacokinetics in mild or moderate hepatic impairment and matched healthy controls; assay type: in vivo, human; conditions: for AUC(0-inf) / AUC(0-t) / Cmax / half-life / Tmax: both sexes, human, plasma, po, 20 mg, vilazodone 20 mg single oral dose
Protocol: The pharmacokinetics, tolerability, and safety of vilazodone were investigated in two separate trials involving participants with hepatic impairment, compared with healthy controls. An Open-label, parallel-group, single-dose pharmacokinetic studies, a single, oral dose of vilazodone (20 mg with increased hardness) was administered to participants with mild, moderate, or severe hepatic impairment or individually matched controls. Outcomes included pharmacokinetic parameters and safety (vital signs, clinical laboratory evaluations, ECG, and adverse events [AEs]). Plasma samples were analyzed using validated LC/MS/MS methods.
Data from two, open-label, parallel-group, single-dose pharmacokinetic studies investigated single-dose vilazodone (20 mg with increased hardness) in participants with hepatic impairment and normal hepatic function. The first study (Study 1) included participants with mild or moderate hepatic impairment and healthy controls. The second study (Study 2) included participants with severe hepatic impairment or healthy participants. These studies were both designed in accordance with the FDA guidance for evaluation of pharmacokinetics in the presence of hepatic impairment. The differences between the study protocols were minimal, so both methodologies are described together, with any differences noted below.
Participants were men and women, 18 to 70 years of age, with a body mass index (BMI) of 18-42 kg/m^2. Women were not pregnant or breastfeeding and agreed to utilize a medically accepted form of contraception during the study (as did men in Study 2). In Study 2, participants were also required to be non-smokers or light smokers (fewer than 10 cigarettes per day; there was no stipulation in Study 1) and to have a sitting pulse rate of 50-100 bpm at screening and prior to dosing on Day 1. […] Each healthy control was matched with a hepatically impaired participant. Control participants in the Study 1 were matched with a hepatically impaired individual according to age (±10 years), sex, and BMI (±15%). Control participants in Study 2 were matched with a hepatically impaired individual according to age (±5 years), sex, and weight (±10%).
Participants with hepatic dysfunction were classified according to the Child-Pugh hepatic dysfunction staging system as having mild (5-6 points) or moderate (7-9 points) hepatic impairment (Study 1), or severe impairment (10-15 points; Study 2). Participants with severe impairment also had chronic liver disease and/or compensated cirrhosis, as evidenced by liver biopsy, computerized tomography or ultrasonic evidence of hepatic fibrosis, clinical evidence of chronic liver disease, or a colloid shift on a liver-spleen scan. Exclusion criteria included the following: a clinical diagnosis or history of depression; treatment with antidepressants, anxiolytics, psychoactive medications (including herbal supplements), other serotonergic drugs, or drugs that inhibit CYP3A4 (eg, ketoconazole, diltiazem, macrolide antibiotics); a hypersensitivity to vilazodone or other SSRIs or 5-HT agonists; history or evidence of alcohol or substance abuse, cancer, human immunodeficiency virus, hepatitis B (Study 1 and healthy controls, both studies) hepatitis C (healthy controls, both studies), or other clinically significant illnesses or medical conditions. Participants with severe hepatic impairment were excluded if they had bleeding diathesis, advanced ascites requiring large-volume paracentesis within 1 week of dosing, esophageal bleeding within the previous 8 weeks, history of portosystemic shunt or hepatic transplant, or evidence of hepatic encephalopathy, hepatorenal syndrome, or other evidence of rapid hepatic deterioration.
Participants were not allowed to have previously taken vilazodone or participated in any clinical investigation requiring repeated blood draws within 60 days of dosing, or donated blood or plasma within 60 or 30 days, respectively.

plasma proteins = experiment: Vilazodone protein binding by equilibrium dialysis (Studies 1 and 2); assay type: in vitro ADME; conditions: both sexes, human, plasma of study participants, read-out: mean percent free fraction in plasma
Protocol: In both studies, additional samples (6 mL each) were collected to determine vilazodone protein binding: in Study 1, these samples were collected in duplicate at predose hour 0 and postdose hours 6 and 12; in Study 2, the samples were collected at predose hour 0 and postdose hours 4 and 12, with an additional sample (13 mL) collected at hour 0 for the determination of albumin concentration.
The plasma concentrations of vilazodone (Studies 1 and 2) and its metabolite M17 (Study 2), vilazodone concentrations in urine (Study 1), and protein binding were determined using liquid chromatography with tandem mass spectrometry (LC/MS/MS) methodologies that have been validated for the following ranges: plasma vilazodone, 0.75 to 250 ng/mL (Study 1) and 0.5 to 250 ng/mL (Study 2); plasma M17, 0.25-125 ng/mL; urine vilazodone, 1.0-200 ng/mL; vilazodone protein binding, high range (sample compartment) 2.7-108 ng/mL, low range (buffer compartment) 0.1-5.4 ng/mL. The extent of vilazodone binding to plasma proteins was determined using equilibrium dialysis.

[2] = Hepatic impairment studies: safety assessments (AEs, ECG); assay type: in vivo, human; conditions: for diarrhea, participants: both studies
Protocol: Safety assessments included vital signs, clinical laboratory evaluations, ECG, and the collection of adverse events (AEs). […] AEs were recorded at all study visits and as they were reported spontaneously by the participants, up to 30 days after the vilazodone dose. Participants were asked about their well-being at each visit.
Safety assessments were summarized without statistical comparisons. The last assessment made before the first dose of study drug was used as a baseline for all subsequent analyses.

[3] = biological target: norepinephrine reuptake site (Homo sapiens, UniProt P23975); conditions: cited from earlier work
norepinephrine reuptake site, sequence (P23975 whole entry): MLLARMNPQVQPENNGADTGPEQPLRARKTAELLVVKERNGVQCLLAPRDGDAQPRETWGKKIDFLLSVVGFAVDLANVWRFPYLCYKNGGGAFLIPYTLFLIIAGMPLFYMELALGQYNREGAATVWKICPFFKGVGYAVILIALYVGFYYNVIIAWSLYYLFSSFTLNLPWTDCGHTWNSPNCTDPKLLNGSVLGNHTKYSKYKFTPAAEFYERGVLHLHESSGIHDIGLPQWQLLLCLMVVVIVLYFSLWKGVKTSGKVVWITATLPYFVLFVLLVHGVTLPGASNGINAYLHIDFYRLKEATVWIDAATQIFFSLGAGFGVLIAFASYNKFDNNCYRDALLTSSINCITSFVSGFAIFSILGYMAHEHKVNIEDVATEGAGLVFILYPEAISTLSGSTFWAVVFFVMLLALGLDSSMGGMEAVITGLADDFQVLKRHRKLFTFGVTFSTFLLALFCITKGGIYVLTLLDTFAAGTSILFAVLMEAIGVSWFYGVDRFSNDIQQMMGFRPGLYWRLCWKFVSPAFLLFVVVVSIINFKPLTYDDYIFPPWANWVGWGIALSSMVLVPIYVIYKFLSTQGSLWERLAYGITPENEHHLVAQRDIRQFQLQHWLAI

[4] = Mild impairment/control, 20 mg single dose
[5] = Moderate impairment/control, 20 mg single dose
[6] = Control matched to Mild Impairment n = 8
[7] = Control matched to Moderate Impairment n = 8
[8] = group with severe hepatic impairment
[9] = matched controls, 20 mg single dose

In the case of `Cl.N#Cc1ccc2[nH]cc(CCCCN3CCN(c4ccc5oc(C(N)=O)cc5c4)CC3)c2c1` [Vilazodone, 1-[4-(5-cyanoindol-3-yl)butyl]-4-(2-carbamoyl-benzofuran-5-yl)-piperazine hydrochloride], the “AUC0-t, Ratio of Geometric Means (%)” value [1, 4] is reported as 97.7%, the “AUC0-∞, Ratio of Geometric Means (%)” value [1, 4] is reported as 98.0% and the “Cmax, Ratio of Geometric Means (%)” value [1, 4] is reported as 97.8%. For the same compound, the “AUC0-t, Ratio of Geometric Means (%)” value [1, 5] was 89.5%, the “AUC0-∞, Ratio of Geometric Means (%)” value [1, 5] was 90.5% and the “Cmax, Ratio of Geometric Means (%)” value [1, 5] was 97.2%. For the same compound, the AUC(0-inf) [1, 6] was 945 ± 169 ng·h/mL, the AUC(0-t) [1, 6] was 898 ± 168 ng·h/mL and the Cmax [1, 6] was 43.1 ± 13.1 ng/mL. The half-life [1, 6] was 25.9 ± 5.9 h, the Tmax ([1]; Control matched to Mild Impairment n = 8, read-out: Tmax (mean)) was 5 ± 1.5 h and the Tmax ([1]; Control matched to Mild Impairment n = 8, read-out: Tmax, Median) was 5 h. It also gave an AUC(0-inf) [1, 7] of 809 ± 231 ng·h/mL, an AUC(0-t) [1, 7] of 768 ± 229 ng·h/mL and a Cmax [1, 7] of 35.8 ± 10.7 ng/mL. The half-life [1, 7] was 25.4 ± 5.5 h, the Tmax ([1]; Control matched to Moderate Impairment n = 8, read-out: Tmax (mean)) was 4.9 ± 0.84 h and the Tmax ([1]; Control matched to Moderate Impairment n = 8, read-out: Tmax, Median) was 5 h. For the same compound, the AUC(0-inf) ([1]; Mild Impairment n = 8) was 1030 ± 506 ng·h/mL, the AUC(0-t) ([1]; Mild Impairment n = 8) was 984 ± 505 ng·h/mL and the Cmax ([1]; Mild Impairment n = 8) was 44.1 ± 16.5 ng/mL. The half-life ([1]; Mild Impairment n = 8) was 30.6 ± 8.2 h, the Tmax ([1]; Mild Impairment n = 8, read-out: Tmax (mean)) was 4.6 ± 1.6 h and the Tmax ([1]; Mild Impairment n = 8, read-out: Tmax, Median) was 4.5 h. For the same compound, the AUC(0-inf) ([1]; Moderate Impairment n = 8) was 727 ± 196 ng·h/mL, the AUC(0-t) ([1]; Moderate Impairment n = 8) was 683 ± 190 ng·h/mL and the Cmax ([1]; Moderate Impairment n = 8) was 34.2 ± 8.2 ng/mL. For the same compound, the half-life ([1]; Moderate Impairment n = 8) was 29.4 ± 11.4 h, the Tmax ([1]; Moderate Impairment n = 8, read-out: Tmax (mean)) was 4.1 ± 1.8 h and the Tmax ([1]; Moderate Impairment n = 8, read-out: Tmax, Median) was 4 h. The “mean recovery of unchanged vilazodone in urine over 96 hours” value ([1]; healthy participants and mild and moderate hepatic impairment, 20 mg single dose) was ≤ 1.3 % of the dose, the fraction unbound (plasma proteins; all participants with severe hepatic impairment) was 0.0224 and the fraction unbound (plasma proteins; healthy controls) was 0.01 to 0.014. The fraction unbound (plasma proteins; participants with mild or moderate hepatic impairment) was 0.016, the fraction unbound (plasma proteins; participants with severe hepatic impairment who did not vomit) was 0.0213 and the “decrease in QT interval (mean, screening to end of study)” value [2, 8] was 14.9 ms. For the same compound, the “increase in QTcB interval (Bazett formula; mean, screening to end of study)” value [2, 8] was 8.7 ms, the “deaths, serious AEs, discontinuations due to an AE” value ([2]; hepatic impairment studies, 20 mg single dose) was “No deaths, serious AEs, or discontinuations due to an AE” and the “diarrhea, participants” value [2, 9] was 5 participants. The “vomiting, participants” value [2, 9] was 0 participants, the “vomiting, participants” value ([2]; participants with hepatic impairment (all severe), 20 mg single dose) was 4 participants and the “diarrhea, participants” value ([2]; participants with hepatic impairment, 20 mg single dose) was 10 participants. For the same compound, the “binding to norepinephrine reuptake site” value [3] was “not”.

From patent US20150157575A1, “Pharmaceutical Formulations Comprising Vilazodone” (Forest Laboratories Holdings Ltd., priority 2013, published 2015)
